Test results reported in patent US20120142730A1 (priority 2010, published 2012).

System: subjects with RRMS
Test: BRAVO phase III trial: laquinimod vs placebo and Interferon β-1a (Avonex) reference arm
Type: in vivo, human
Experimental: A multinational, multicenter, randomized, parallel-group, clinical trial is performed in subjects with RRMS (“BRAVO”).
Interferon β-1a (Avonex®) 30 mcg intramuscular injection once weekly (400 subjects).
During the study, the following assessments are performed (regardless of the treatment assignment) at the specified time points: • 1. Vital signs (temperature, pulse, blood pressure) are measured at each study visit. • 2. A physical examination is performed at months −1 (screening), (baseline) 1, 3, 6, 12, 18 and 24 (termination/early discontinuation). • 3. The following safety clinical laboratory tests are performed: • a. Hematology and Complete blood count (CBC) with differential—at all scheduled visits. A reticulocyte count is added to the CBC at months 0 (baseline) and 24 (termination/early discontinuation) as well as in occasions of significant decrease in hemoglobin. • b. Serum chemistry (including electrolytes, liver enzymes, direct and total bilirubin, CPK and pancreatic amylase), and urinalysis—at all scheduled visits. • c. Serum TSH, T3 and Free T4 are measured at months 0 (baseline), 6, 12, 18 and 24 (termination/early discontinuation). • d. A rapid urine β-hCG test is performed in women of child-bearing potential at baseline (month 0; all subjects) and at each scheduled study visit thereafter (at site; only subjects assigned to oral treatment). • e. β-hCG in women of child-bearing potential are performed at each study visit. • f. Starting after visit Month 3 a rapid urine β-hCG test is performed in women of child-bearing potential (only those assigned to oral treatment) every 28 (±2) days. The subject is contacted by telephone with 72 hours after the test is scheduled to be performed and asked specific questions regarding the test. In case of suspected pregnancy (positive urine β-hCG test result), the caller makes sure that the study drug has been discontinued and the subject is instructed to arrive to the site as soon as possible with all study drugs. • 4. Markers of inflammation (serum conventional C-reactive protein and fibrinogen) are measured at all scheduled visits. • 5. […] These samples are collected at months 0, 12 and 24. • 6. […] In case of suspected thrombotic event, the subject is requested to arrive at the site immediately for further evaluation. […] ECG is performed at months −1 (screening; additional recording, up to 30 minutes apart are performed if QTc is >450 msec), 0 (baseline; three recordings, 15 minute apart), 1, 2, 3, 6, 12, 18 and 24 (termination/early discontinuation). • 8. Chest X-ray is performed at month −1 (screening) (if not performed within 6 months prior to screening visit). • 9. Adverse Events (AEs) are monitored throughout the study and recorded. • 10. Concomitant medications are monitored throughout the study. • 11. Neurological evaluations, including Neurostatus [Functional Systems (FS), Expanded Disability Status Scale (EDSS; Converted scale), Ambulation Index (AI)] and Timed-25 foot walk test are performed at months −1 (screening), 0 (baseline) and every 3 months thereafter, until termination/early discontinuation. (At screening visit, the Timed-25 foot walk test is performed 3 times, for practicing purposes, as a part of the MSFC). • 12. MS Functional Composite (MSFC) is assessed at months −1 (screening) (three practices for training purposes only), 0 (baseline), 6, 12, 18 and 24 (termination/early discontinuation). • 13. The general health status is assessed by the EuroQoL (EQ5D) questionnaire at months 0 (baseline) and 24 (termination/early discontinuation). • 14. The general health status and quality of life parameters are assessed by the Short-Form general health survey (SF-36) subject-reported questionnaire at month 0 (baseline) and every 6 months thereafter until termination/early discontinuation, inclusive. • 15. Subject-reported fatigue is assessed by the Modified Fatigue Impact Scale (MFIS) at months 0 (baseline), 2, 6, 12, 18 and 24 (termination/early discontinuation). • 16. […]

[1] = 0.6 mg daily oral compared to weekly 30 mcg Interferon β-1a (Avonex)

`CCN(C(=O)c1c(O)c2c(Cl)cccc2n(C)c1=O)c1ccccc1` [Laquinimod, laquinimod] was tested, and the “Accumulation of physical disability (MSFC score, time to confirmed progression of EDSS)” value (0.6 mg daily oral) was “reduces the accumulation of physical disability”, the “Brain atrophy (percent brain volume change from baseline to end of treatment)” value (0.6 mg daily oral) was “reduces brain atrophy” and the “Fatigue (MFIS)” value (0.6 mg daily oral) was “reduces the fatigue”. For the same molecule, the “General health status (SF-36)” value (0.6 mg daily oral) was “improves the general health status”, the “Prevention or delay of relapses” value (0.6 mg daily oral) was “prevents or delays relapses” and the “Quality of life (EuroQoL EQ5D)” value (0.6 mg daily oral) was “improves the quality of life”. The “Severe relapses (requiring hospitalization or intravenous steroid treatment)” value (0.6 mg daily oral) was “reduces the rate of severe relapses or the severity of relapses”, the Adverse effects [1] was “fewer adverse effects, less severe adverse effects” and the “Safety and tolerability profile” value [1] was “favorable safety and tolerability profile”. The “Number of confirmed relapses” value (0.6 mg daily oral, vs placebo and Avonex arm) was “reduces the number of confirmed relapses”.
